Test results as given in ChEMBL document CHEMBL1155494, “New stilbene dimers against amyloid fibril formation” (Bioorg Med Chem Lett, 2010).

Tests used:
[1] = Inhibition of amyloid beta 25-35 fibril formation at 10 uM by using UV-visible measurements and electron microscopy analysis
[2] = Inhibition of amyloid beta 25-35 fibril formation by using UV-visible measurements and electron microscopy analysis

inhibition [1] [%]	EC50 [2] [µM]	SMILES
9	–	Oc1cc(O)cc(-c2cc3ccc(O)cc3o2)c1
45	10	COc1cc(/C=C/C(=O)CC(=O)/C=C/c2ccc(O)c(OC)c2)ccc1O [CURCUMIN]
27	–	Oc1ccc(/C=C/c2cc(O)cc3c2[C@H](c2cc(O)cc(O)c2)[C@@H](c2ccc(O)cc2)O3)cc1
46	10	OC[C@@H]1O[C@H](Oc2ccc(/C=C/c3cc(O)c4c(c3)O[C@H](c3ccc(O[C@H]5O[C@@H](CO)[C@H](O)[C@@H](O)[C@@H]5O)cc3)[C@H]4c3cc(O)cc(O)c3)cc2)[C@@H](O)[C@H](O)[C@H]1O [12,GNEMENOSIDE A]
17	–	Oc1ccc([C@H]2Oc3cc(O)c([C@@H]4[C@@H](c5cc6c(cc5O)O[C@H](c5ccc(O)cc5)[C@H]6c5cc(O)cc(O)c5)[C@H](c5ccc(O)cc5)O[C@@H]4c4ccc(O)cc4)cc3[C@@H]2c2cc(O)cc(O)c2)cc1
63	6	Oc1ccc(/C=C/c2cc(O)cc(O)c2)cc1 [RESVERATROL]
32	–	Oc1ccc(C2Oc3ccc(/C=C/c4cc(O)cc5c4[C@H](c4cc(O)cc(O)c4)[C@@H](c4ccc(O)cc4)O5)cc3[C@@H]2c2cc(O)cc3c2[C@H](c2cc(O)cc(O)c2)C(c2ccc(O)cc2)O3)cc1 (some centres not stated)
11	–	OC[C@H]1O[C@@H](Oc2ccc(/C=C/c3cc(O)cc(O)c3)cc2)[C@H](O)[C@@H](O)[C@@H]1O
35	–	COc1cc(/C=C/c2ccc(O)cc2)cc(OC)c1
80	0.7	Oc1ccc(/C=C/c2cc(O)cc3c2[C@H](c2cc(O)cc(O)c2)[C@@H](c2ccc(O)c(O)c2)O3)cc1 [SCIRPUSIN A]
93	0.2	OC[C@H]1O[C@@H](Oc2cc(/C=C/c3ccc(O)cc3)c3c(c2)O[C@H](c2ccc(O)cc2)[C@H]3c2cc(O)cc(O)c2)[C@H](O)[C@@H](O)[C@@H]1O
40	–	COc1cc(/C=C/c2cc(O)c3c(c2)O[C@H](c2ccc(O)c(OC)c2)[C@H]3c2cc(O)cc(O)c2)ccc1O
28	–	COc1cc(/C=C/c2cc(O)cc(O)c2)ccc1O[C@@H]1O[C@H](CO)[C@@H](O)[C@H](O)[C@H]1O
62	6	OC[C@H]1O[C@@H](Oc2cc(O)cc(/C=C/c3ccc(O)cc3)c2)[C@H](O)[C@@H](O)[C@@H]1O [PICEID]
25	–	Oc1cc(O)cc(/C=C/c2ccc(O)c(O)c2)c1

SMILES	inhibition [1] [%]	EC50 [2] [µM]
Oc1cc(O)cc(/C=C/c2ccc(O)cc2O)c1	32	–
